Source: the supplement of paper PMC10307832

Key:
Test in all cases: relative viability (nuclei count vs DMSO), 5 days (fraction); higher = more cells survive
[1] = compound: COc1cc2c(Oc3ccc4[nH]c(C)cc4c3F)ncnc2cc1OCCCN1CCCC1 [Cediranib] + Nc1nc2[nH]cc(CCc3ccc(C(=O)N[C@@H](CCC(=O)O)C(=O)O)cc3)c2c(=O)[nH]1 [Pemetrexed] (partner 0.2 µM)
Method in brief: (§1)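 Medians of duplicate plates are given as relative viability. That measure is the nuclei count in treated wells divided by the count in vehicle wells. Counts were taken on 4× images of lung cancer cell lines in 1536-well plates, 5 days after pin-tool dosing the day after seeding with one drug alone or a fixed anchor-drug dose plus five library-drug doses (not always all listed) in √10 steps.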

[2] = compound: COc1cc2c(Oc3ccc4[nH]c(C)cc4c3F)ncnc2cc1OCCCN1CCCC1 [Cediranib] + Nc1ncn([C@H]2C[C@H](O)[C@@H](CO)O2)c(=O)n1 [Decitabine] (partner 2 µM)
Method in brief: as §1

[3] = compound: Nc1ncn([C@H]2C[C@H](O)[C@@H](CO)O2)c(=O)n1 [Decitabine] + Cc1cc(Nc2cc(N3CCN(C)CC3)nc(Sc3ccc(NC(=O)C4CC4)cc3)n2)n[nH]1 [Tozasertib] (partner 0.1 µM)
Method in brief: as §1

[4] = compound: O=C(C[C@H]1NCCC[C@@H]1O)Cn1cnc2cc(Br)c(Cl)cc2c1=O (racemic) [Halofuginone] + CC(C)C[C@H](NC(=O)[C@H](Cc1ccccc1)NC(=O)c1cnccn1)B(O)O [Bortezomib] (partner 0.002 µM)
Method in brief: as §1

Cell Line	relative viability ([1]; first compound 0.04 µM)	relative viability ([1]; first compound 0.1265 µM)	relative viability ([1]; first compound 0.4 µM)	relative viability ([1]; first compound 1.265 µM)	relative viability ([1]; first compound 4 µM)	relative viability ([2]; first compound 0.04 µM)	relative viability ([2]; first compound 0.1265 µM)	relative viability ([2]; first compound 0.4 µM)	relative viability ([2]; first compound 1.265 µM)	relative viability ([2]; first compound 4 µM)	relative viability ([3]; first compound 0.04 µM)	relative viability ([3]; first compound 0.1265 µM)	relative viability ([3]; first compound 0.4 µM)	relative viability ([3]; first compound 4 µM)	relative viability ([4]; first compound 0.001 µM)	relative viability ([4]; first compound 0.003162 µM)	relative viability ([4]; first compound 0.01 µM)	relative viability ([4]; first compound 0.03162 µM)	relative viability ([4]; first compound 0.1 µM)	relative viability ([3]; first compound 1.265 µM)
201T	0.344	0.314	0.327	0.359	0.355	0.876	0.89	0.889	0.868	0.878	0.742	0.776	0.909	0.587	1.06	1.1	1.15	1.1	1.16	
A-427	0.921		0.955	0.962	1.08	0.566		0.537	0.537	0.66	0.195	0.136	0.118	0.135	1	0.869	1	0.954	0.932	0.123
BEN	0.921	0.549	0.693	0.501	0.786	0.732	0.431	0.74	0.509	0.722	0.443	0.454	0.421	0.355	0.865	0.826	0.865	0.682	0.408	0.371
COR-L23	0.203	0.209	0.2	0.214	0.202	0.528	0.44	0.402	0.332	0.484	0.134	0.158	0.158	0.128	1.15	1.1	0.963	0.965	0.184	0.123
COR-L 105	1.11	1.08	1.06	1.08	1.15	0.65	0.676	0.629	0.601	0.729	0.378	0.336	0.36	0.237	1.01	0.86	0.769	0.674	0.44	0.365
ChaGo-K-1	0.262	0.261	0.297	0.252	0.263	0.51	0.376	0.506	0.57	0.784	0.23	0.238	0.189	0.208	0.996	0.875	0.948	1.05	0.91	0.176
EKVX	0.512	0.412	0.384		0.441	0.332	0.342	0.341		0.392	0.283	0.266	0.247	0.148	1.15	1.02	1.05	1.01	0.935	0.166
EMC-BAC-2	0.565	0.47	0.433	0.464	0.477	0.953		0.989	0.918	1.04	0.274	0.266	0.27	0.271	1.1	1.09	1.08	1.02	0.986	0.251
EPLC-272H	0.361	0.345	0.375	0.37	0.282	0.352		0.338	0.406	0.354		0.307	0.0586	0.157	0.772	1.09	0.918	0.98	0.779	0.26
